According to ChEMBL document CHEMBL5126535, “Quinoline heterocyclic containing plant and marine candidates against drug-resistant Mycobacterium tuberculosis: A systematic drug-ability investigation” (Eur J Med Chem, 2022):
Values after ≈ are worked out from the molar mass of the structure shown.

How the values were obtained:
[1] = tested on: Mycobacterium tuberculosis; experiment: Antibacterial activity against Mycobacterium tuberculosis; format: functional, organism-based
[2] = tested on: Mycobacterium tuberculosis; experiment: Antibacterial activity against Mycobacterium tuberculosis H37Rv ATCC 27294 incubated for 6 weeks by MGIT assay; format: functional; details: H37Rv ATCC 27294, 1008 h
[3] = tested on: Mycobacterium tuberculosis; experiment: Antibacterial activity against Mycobacterium tuberculosis measured after 14 days; format: functional; details: 336 h, time 14 day
[4] = tested on: Mycobacterium tuberculosis; experiment: Antibacterial activity against Mycobacterium tuberculosis incubated for 5 days by Alamar blue staining method; format: functional; details: 120 h, time 5 day
[5] = tested on: Mycobacterium tuberculosis; experiment: Antibacterial activity against Mycobacterium tuberculosis H37Ra assessed as inhibition of bacterial growth incubated for 72 hrs by microbroth dilution method; format: functional
[6] = tested on: Mycobacterium tuberculosis; experiment: Antibacterial activity against Mycobacterium tuberculosis H37Rv ATCC 27294 by broth microdilution based microplate Alamar blue staining method; format: functional
[7] = tested on: Mycolicibacterium fortuitum; experiment: Antibacterial activity against Mycobacterium fortuitum ATCC 6841 measured after 24 hrs; format: functional
[8] = tested on: Mycolicibacterium fortuitum; experiment: Antibacterial activity against Mycobacterium fortuitum measured after 72 hrs by 96-well microtitre plate assay; format: functional
[9] = tested on: Mycobacterium tuberculosis; experiment: Antibacterial activity against Mycobacterium tuberculosis H37Ra ATCC 25177 assessed as no visible mycobacterial growth incubated for 7 to 8 days by light microscope based spectrophotometric analysis; format: functional; details: time 7-8 day
[10] = tested on: Mycobacterium tuberculosis; experiment: Antibacterial activity against Mycobacterium tuberculosis H37Rv ATCC 27294 incubated for 5 days by Alamar blue staining method; format: functional; details: H37Rv ATCC 27294, 120 h, time 5 day
[11] = tested on: Mycobacterium tuberculosis; experiment: Antibacterial activity against Mycobacterium tuberculosis H37Ra by MABA method; format: functional
[12] = tested on: Mycolicibacterium smegmatis; experiment: Antibacterial activity against Mycobacterium smegmatis measured after 72 hrs; format: functional
Mycolicibacterium aurum = experiment: Antibacterial activity against Mycobacterium aurum measured after 72 hrs; format: functional

O=C1c2c(O)ccnc2-c2nccc3c2c1nc1ccccc13
MIC [1]: > 12.6 µg/mL

COc1ccc2c3c(c4cc(OC)c(OC)cc4c2c1)CN1CCC[C@H]1C3
MIC [2]: 12.5 µg/mL (≈ 34.4 µM)

Cn1c(=O)ccc2ccccc21
MIC [3]: 25 µg/mL (≈ 157 µM)

COc1cc(-c2ccccc2)nc2ccccc12
MIC [4]: 6.25 µg/mL (≈ 26.6 µM)

COc1ccc2c(c1OC)C(OC)N(C)c1c-2ccc2cc3c(cc12)OCO3 (stereo not drawn)
MIC [4]: 12.5 µg/mL (≈ 32.9 µM)

CCCCCc1cc(OC)c2ccccc2n1
MIC [3]: 6.25 µg/mL (≈ 27.3 µM)

COc1cc2c(c3c[n+](C)c4c5cc6c(cc5ccc4c13)OCO6)OCO2
MIC [4]: 12.5 µg/mL

CCCC/C=C\CCCCCCCc1cc(=O)c2ccccc2n1C
MIC [5]: 5 µg/mL (≈ 14.7 µM)

COc1ccc2cc1-c1cc(ccc1O)CC1NCCc3cc4c(cc31)Oc1c(c(OC)cc3c1C(C2)N(C)CC3)O4 (stereo not drawn)
MIC [3]: 3.1 µg/mL (≈ 5.51 µM)

COc1ccc(CCC2CCc3ccccc3N2C)cc1OC (stereo not drawn)
MIC [3]: 6 µg/mL (≈ 19.3 µM)

CC(=O)C[C@H]1CC2C(C3c4[nH]c5ccccc5c4CCN31)C(O)C13CC/C=C\CCCCN1CC21CC/C=C\CCCCNC13 (stereo partly drawn)
MIC [6]: 1.57 µg/mL (≈ 2.57 µM)

CC(=O)C[C@@H]1CC2C(C3c4[nH]c5ccccc5c4CCN31)C(O)C13CC/C=C\CCCCN1CC21CC/C=C\CCCCNC13 (stereo partly drawn)
MIC [6]: 1.9 µg/mL (≈ 3.11 µM)

COC(=O)C1=C2Nc3ccccc3C23CCN2C(O)C4(CC5CC67CC(=O)OC6CCN6CCC8(c9cccc(OC)c9N(C4)C58)C67)C4OCCC4(C1)C23 (stereo not drawn)
MIC [3]: 4 µg/mL (≈ 5.46 µM)

COc1cc2c(cc1OC)-c1cc(CC(C)=O)c3cc4c(cc3c1N(C)C2)OCO4
MIC [1]: 6.25 µg/mL (≈ 15.4 µM)

COc1cc2c(c3c1-c1ccc4cc5c(cc4c1N(C)C3OC)OCO5)OCO2 (stereo not drawn)
MIC [4]: 25 µg/mL (≈ 63.5 µM)

COc1ccc2cc1-c1cc(ccc1O)CC1c3cc4c(cc3CCN1C)Oc1c(OC)cc3c(c1O4)C(C2)N(C)CC3 (stereo not drawn)
MIC [3]: 3.1 µg/mL (≈ 5.38 µM)

On1ccc2c3ccccc3nc-2c1C1=CC2(O)CCC/C=C\CCCN3CCC1C1(CC4/C=C\CCCCN4C21)C3 (stereo not drawn)
MIC [1]: 3.9 µg/mL (≈ 6.91 µM)

COc1ccc2cc1Oc1ccc(cc1)CC1NCCc3cc(OC)c(cc31)Oc1c(OC)c(OC)cc3c1C(C2)N(C)CC3 (stereo not drawn)
MIC [3]: 0.25 µg/mL (≈ 0.411 µM)

COc1ccc(CCc2cc(OC)c3ccccc3n2)cc1OC
MIC [3]: 6.25 µg/mL (≈ 19.3 µM)

COc1cc2c(cc1O)CCNC21C[S+]([O-])C2c3c(OC(C)=O)c(C)c4c(c3C(COC1=O)N1C(C#N)C3CC5CC(C)C(OC)C(O)C5C(C21)N3C)OCO4 (stereo not drawn)
MIC [1]: 1.6 µg/mL (≈ 2.02 µM)

CN1c2ccccc2CCC1CCc1ccc2c(c1)OCO2 (stereo not drawn)
MIC [3]: 6.25 µg/mL (≈ 21.2 µM)

COc1cc2c3c(OC)cc4c(c3c[n+](C)c2c2cc3c(cc12)OCO3)OCO4
MIC [4]: 12.5 µg/mL

OC12C=C(c3nccc4c3[nH]c3ccccc34)C3CCN(CCCC/C=C\CC1)CC31CC34CCC(CCCN3C21)O4 (stereo not drawn)
MIC [1]: 1.77 µg/mL (≈ 3.13 µM)

O=C1c2cccnc2-c2nccc3c2c1nc1ccccc13 [ASCIDIDEMIN]
MIC [1]: 0.01 µg/mL (≈ 0.0353 µM)

COc1ccc2c(c1)c(-c1c3c4c(cc5c(c4c4ccc(OC)cc14)OCO5)CCN3)c1c3c(cc4c(c32)OCO4)CCN1 [BIDEBILINE E]
MIC [3]: 6.25 µg/mL (≈ 10.7 µM)

Cn1c2c3ccccc3nc-2c(-c2c3nc4ccccc4c-3n(C)c3ccccc23)c2ccccc21 [BISCRYPTOLEPINE]
MIC [7]: 6.25 µg/mL (≈ 13.5 µM)

COc1ccc2c(c[n+](C)c3c4cc5c(cc4ccc23)OCO5)c1OC [CHELERYTHRINE]
MIC [1]: 3.1 µg/mL

Cc1ccnc2c1C(=O)c1ccccc1C2=O [CLEISTOPHOLINE]
MIC [4]: 12.5 µg/mL (≈ 56 µM)

C[n+]1c2ccccc2cc2[n-]c3ccccc3c21 [CRYPTOLEPINE]
MIC [8]: 16 µg/mL (≈ 68.9 µM)

COc1cc(CCc2ccc3c(c2)OCO3)nc2ccccc12 [CUSPARINE]
MIC [3]: 6.25 µg/mL (≈ 20.3 µM)

COc1c(O)ccc2c1cnc1c3cc4c(cc3ccc21)OCO4 [DECARINE]
MIC [9]: 3.1 µg/mL (≈ 9.71 µM)

COc1cc2c(cc1OC)-c1c3c(cc4ccnc(c14)C2=O)OCO3 [DICENTRINONE]
MIC [10]: 50 µg/mL (≈ 149 µM)

CSC1=C(CCNC(C)=O)c2nc3ccccc3c3ccnc(c23)C1=O [DIPLAMINE]
MIC [1]: 6.18 µg/mL (≈ 17 µM)

CSc1cnc2c3c(nc4ccccc4c13)C(CCNC(C)=O)=CC2=O [ISODIPLAMINE]
MIC [1]: 6.18 µg/mL (≈ 17 µM)

O=C1c2scnc2-c2nccc3c2c1nc1ccccc13 [KUANONIAMINE A]
MIC [1]: 3.1 µg/mL (≈ 10.7 µM)

CC(=O)NCCc1c2c3c(ccnc3c3ncsc13)-c1ccccc1N2 [KUANONIAMINE D]
MIC [1]: 12.2 µg/mL (≈ 34 µM)

CC(=O)NCCc1c2c(c3nccc4c3c1Nc1ccccc1-4)OCS2 [LISSOCLINIDINE]
MIC [1]: 6.18 µg/mL (≈ 17 µM)

Cn1c2nc3ccccc3c-2cc2ccccc21 [NEOCRYPTOLEPINE]
MIC [7]: 31 µg/mL (≈ 133 µM)

COc1cc2c[n+](C)c3c4cc5c(cc4ccc3c2cc1OC)OCO5 [NITIDINE]
MIC [4]: 12.5 µg/mL

COc1cccc2c1C(=O)c1nccc3cc4c(c-2c13)OCO4 [OXOSTEPHANINE]
MIC [11]: 25 µg/mL (≈ 81.9 µM)

C[n+]1cc2c3c(ccc2c2ccc4cc5c(cc4c21)OCO5)OCO3 [SANGUINARIUM]
MIC [12]: 24.5 µg/mL
MIC (Mycolicibacterium aurum): 24.5 µg/mL

CC(=O)NCCc1c2c(c3nccc4c3c1Nc1ccccc1-4)NC(=O)CS2 [SHERMILAMINE B]
MIC [1]: 12.5 µg/mL (≈ 32 µM)
